Here are results for 12 compounds from patent publication EP0398425A1, “Antirhinoviral piperidinyl, pyrrolidinyl and piperazinyl alkylphenol ethers” (JANSSEN PHARMACEUTICA N.V., priority 1989, dated 1990).

For assay [1], the system named is Human Rhinovirus serotypes HRV- 2,-29,-39,-85,-9,-15,-51,-59,-63,-89,-41. As to the kind of experiment: Picornavirus Minimal Inhibitory Concentration Test (cytopathic effect reduction assay), first panel of rhinoviruses. It counts as cell-based. Conditions: Human rhinovirus sp.; medium value of the IC50-values of all serotypes of the first panel; Ohio Hela cells, 3 to 5 days at 33°C; IC50 = concentration protecting 50% of the cells from cytopathic effects; read-out: Med₁. The procedure: (§1) The Minimal Inhibitory Concentration of the compounds of the present invention against the Human Rhinovirus strains (HRV) -2,-9,-14,-15,-29,-39,-41,-42,-45,-51, -59, -63,-70,-72,-85,-86 and -89 was determined by a standard cytopathic effect reduction assay as follows. To each of the ninty six (96) wells of a microtiter 96 well tissue culture plate there was added 60 µl of a Ohio Hela cell maintenance medium [Eagle's Basal medium supplemented with 5% Foetal Calf Serum (FCS)]. To two wells there was added 60 µl of an appropriate starting dilution of a compound of formula (I) and two-fold dilutions were made to cover a wide range of compound concentrations. Subsequently there were added 120 µl of an infectious solution of virus in Eagle's Basal Medium with 2% Hepes buffer, 2% FCS and 30 mM MgCl₂ to all wells except cell and compound controls. Said infectious virus solution having a TCID₅₀-value (Tissue Culture Infectious Dose) of about 100.
(§2) The TCID₅₀-value is the dose of viruses which initiates a cytopathic effect in 50% of the inoculated cells. 150 µl of the thus obtained virus-compound mixtures were then transferred to microtitre plates with subconfluent Ohio Hela Cells, grown in 100 µl of maintenance medium. Appropriate virus controls, cell controls and compound controls were included in each test. Plates were incubated for 3 to 5 days at 33°C in 5% CO₂ atmosphere. […] The IC₅₀-value for each virus-compound series was taken as the concentration in ng/ml that protected 50% of the cells from cytopathic effects with respect to the untreated controls. In the standard test procedure, the compounds were tested against two panels of rhinoviruses, a first panel consisting of serotypes HRV- 2,-29,-39,-85,-9,-15,-51,-59,-63,-89,-41 and the other panel consisting of HRV-42,-45,-14,-70,-72 and -86.
(§3) The IC₅₀-value for each rhinovirus serotype was determined, and the efficacy of each compound was determined in terms of the Med₁-value and Med₂-value, which is the medium value of the IC₅₀-values of all serotypes from the first and second panel respectively.
Background: Protection from cytopathic effect is a common read-out in antiviral testing.

Assay [2] deals with Human Rhinovirus serotypes HRV-42,-45,-14,-70,-72 and -86. In words: Picornavirus Minimal Inhibitory Concentration Test (cytopathic effect reduction assay), second panel of rhinoviruses. It counts as cell-based. The settings on record: Human rhinovirus sp., HRV42; medium value of the IC50-values of all serotypes of the second panel; Ohio Hela cells, 3 to 5 days at 33°C; IC50 = concentration protecting 50% of the cells from cytopathic effects; read-out: Med₂. On the procedure: as §1, §2, §3

Molecules are shown by their SMILES. Converted amounts (≈) assume the structure as drawn.

Take `CCOC(=O)c1ccc(OCCC2CCN(c3nsc4ccccc34)CC2)cc1` [Compound 19, ethyl 4-[2-[1-(1,2-benzisothiazol-3-yl)-4-piperidinyl]ethoxy]benzoate]: the IC50 in assay [1] is 0.144 µg/mL (≈ 0.351 µM); in assay [2] it was 0.25 µg/mL (≈ 0.609 µM).

Take `CCOC(=O)c1ccc(OCCN2CCN(c3nnc(Br)s3)CC2)cc1` [Compound 27]: the results for the IC50 in assay [1] and in assay [2] were 0.044 µg/mL (≈ 0.0997 µM) and 0.011 µg/mL (≈ 0.0249 µM), respectively.

`CCOC(=O)c1ccc(OCCC2CCN(c3nnc(C)s3)CC2)cc1` [Compound 13, ethyl 4-[2-[1-(5-methyl-1,3,4-thiadiazol-2-yl)-4-piperidinyl]ethoxy]benzoate]: the IC50 was found to be 0.01 µg/mL (≈ 0.0266 µM) in assay [1] and 0.035 µg/mL (≈ 0.0932 µM) in assay [2].

In the case of `CCOC(=O)c1ccc(OCCC2CCN(C3=NS(=O)(=O)c4ccccc43)CC2)cc1` [Compound 14], the IC50 in assay [1] was 0.053 µg/mL (≈ 0.12 µM); in assay [2], 0.344 µg/mL (≈ 0.777 µM).

With `CCOC(=O)c1ccc(OCCCN2CCN(c3nncs3)CC2)cc1` [Compound 35], the IC50 in assay [1] was 0.376 µg/mL (≈ 0.999 µM); in assay [2], 0.172 µg/mL (≈ 0.457 µM).

Regarding `CCOC(=O)c1ccc(OCCC2CCN(c3nc(C(=O)OCC)cs3)CC2)cc1` [Compound 6], the IC50 in assay [1] came out at 0.031 µg/mL (≈ 0.0717 µM); in assay [2], 0.4 µg/mL (≈ 0.925 µM).

Take `CCOC(=O)c1ccc(OCCN2CCN(c3nc4ccccc4s3)CC2)cc1` [Compound 46, ethyl 4-[2-[4-(2-benzothiazolyl)-1-piperazinyl]ethoxy]benzoate]: the IC50 in assay [1] turned out to be 0.312 µg/mL (≈ 0.758 µM); in assay [2], 0.027 µg/mL (≈ 0.0656 µM).

Take `CCOC(=O)c1ccc(OCCN2CCN(c3nc(C(=O)OCC)cs3)CC2)cc1` [Compound 34, ethyl 2-[4-[2-[4-(ethoxycarbonyl)phenoxy]ethyl]-1-piperazinyl]-4-thiazolecarboxylate]: the IC50 in assay [1] worked out at 0.088 µg/mL (≈ 0.203 µM); in assay [2], 0.009 µg/mL (≈ 0.0208 µM).

On to `CCc1noc(-c2ccc(OCCC3CCN(c4nnc(Br)s4)CC3)cc2)n1` [Compound 61], for which the values for the IC50 in assay [1] and in assay [2] were 0.011 µg/mL (≈ 0.0237 µM) and 0.244 µg/mL (≈ 0.525 µM), respectively.

Turning to `CCOC(=O)c1ccc(OCCC2CCN(c3nnc(Br)s3)CC2)cc1` [Compound 17], the IC50 in assay [1] stood at 0.006 µg/mL (≈ 0.0136 µM); in assay [2], 0.0705 µg/mL (≈ 0.16 µM).

On to `CCOC(=O)c1ccc(OCCCN2CCN(c3nc(C(=O)OCC)cs3)CC2)cc1` [Compound 49], for which the IC50 in assay [1] worked out at 0.156 µg/mL (≈ 0.349 µM); in assay [2], 0.097 µg/mL (≈ 0.217 µM).

`CCOC(=O)c1ccc(OCCCN2CCN(c3nnc(Br)s3)CC2)cc1` [Compound 29]: the IC50 in assay [1] was 0.175 µg/mL (≈ 0.384 µM); in assay [2], 0.037 µg/mL (≈ 0.0813 µM).
